28 molecules from patent publication US9067934B2, “Bicyclic pyridinones” (Pfizer Inc., priority 2011, dated 2015) can be followed below.

pIC50: −log10 of the molar value. Counter-ions that a name gives are not always drawn.

The subject of the assay is production of amyloid beta protein Aβ(1-42) (γ-secretase) in human WT-APP overexpressing CHO cells. The experiment in a line: Cell-Based γ-Secretase Assay with ELISA Readout. Conditions: human WT-APP overexpressing CHO cells, ~24 hours at 37° C., Aβ(1-42) ELISA; footnotes: a = geometric mean of >15 determinations, b = single determination, c = geometric mean of 7-15 determinations; read-out: Aβ 42B IC50 (Geometric Mean of 2-6 Determinations). In outline:
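Human WT-APP-overexpressing CHO cells were pre-cultured 24 h at 37° C, then exposed to compounds (eleven-point half-log series, 1% final DMSO) for ~24 h. Aβ(1-42) in conditioned media was captured with Aβ(1-42)-specific antibody and detected with Eu-labeled 6e10 by DELFIA TRF. IC50 by nonlinear regression against min/max inhibition controls.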
Background: ELISA stands for enzyme-linked immunosorbent assay.
In the case of `COc1cccc2c(OCCN3CCn4c(ccc(-n5cnc(C)c5)c4=O)C3=O)cccc12` [Example 60, 2-{2-[(5-methoxy-1-naphthyl)oxy]ethyl}-7-(4-methyl-1H-imidazol-1-yl)-3,4-dihydro-2H-pyrido[1,2-a]pyrazine-1,6-dione, trifluoroacetate salt], the negative-log IC50 (pIC50) (commonly the IC50 on a negative log10 scale, so that one unit is a factor of ten) was 7.48.
As for `C#CCCCOc1ccc(C(=O)c2cccc(OCCN3CCn4c(ccc(-n5cnc(C)c5)c4=O)C3=O)c2)cc1` [Example 70, 7-(4-methyl-1H-imidazol-1-yl)-2-(2-{3-[4-(pent-4-yn-1-yloxy)benzoyl]phenoxy}ethyl)-3,4-dihydro-2H-pyrido[1,2-a]pyrazine-1,6-dione], the figure is 6.87; as for `Cc1cn(-c2ccc3n(c2=O)CCN(CCOc2ccc(C(F)(F)F)nc2C(F)(F)F)C3=O)cn1` [Example 31, 2-(2-{[2,6-bis(trifluoromethyl)pyridin-3-yl]oxy}ethyl)-7-(4-methyl-1H-imidazol-1-yl)-3,4-dihydro-2H-pyrido[1,2-a]pyrazine-1,6-dione], 7.01; as for `Cc1cn(-c2ccc3n(c2=O)CCN(CCOc2ccc(Cl)c4c2CCC4)C3=O)cn1` [Example 9, 2-{2-[(7-chloro-2,3-dihydro-1H-inden-4-yl)oxy]ethyl}-7-(4-methyl-1H-imidazol-1-yl)-3,4-dihydro-2H-pyrido[1,2-a]pyrazine-1,6-dione], 7.08.
With `Cc1cn(-c2ccc3n(c2=O)CCN(CCOc2ccnc4cc(C(F)(F)F)ccc24)C3=O)cn1` [Example 61, 7-(4-methyl-1H-imidazol-1-yl)-2-(2-{[7-(trifluoromethyl)quinolin-4-yl]oxy}ethyl)-3,4-dihydro-2H-pyrido[1,2-a]pyrazine-1,6-dione], the pIC50 was 6.97.
For `Cc1cn(-c2ccc3n(c2=O)CCN(CCOc2ccccc2C(C)(C)C)C3=O)cn1` [Example 13, 2-[2-(2-tert-butylphenoxy)ethyl]-7-(4-methyl-1H-imidazol-1-yl)-3,4-dihydro-2H-pyrido[1,2-a]pyrazine-1,6-dione], the negative logarithm of the IC50 (pIC50) is 6.97.
With `Cc1cn(-c2ccc3n(c2=O)CCN(CCOc2ccc(Cl)cc2C(F)(F)F)C3=O)cn1` [Example 22, 2-{2-[4-chloro-2-(trifluoromethyl)phenoxy]ethyl}-7-(4-methyl-1H-imidazol-1-yl)-3,4-dihydro-2H-pyrido[1,2-a]pyrazine-1,6-dione], the pIC50 was 6.99.
For `Cc1cn(-c2ccc3n(c2=O)CCN(CC(C)Oc2ccc(C(F)(F)F)cc2)C3=O)cn1` (stereo not shown) [Example 5, 7-(4-methyl-1H-imidazol-1-yl)-2-{2-[4-(trifluoromethyl)phenoxy]propyl}-3,4-dihydro-2H-pyrido[1,2-a]pyrazine-1,6-dione], the negative-log IC50 (pIC50) was 6.00.
As for `Cc1cn(-c2ccc3n(c2=O)CCN([C@@H](C)COc2ccccc2S(F)(F)(F)(F)F)C3=O)cn1` [Example 120, 7-(4-methyl-1H-imidazol-1-yl)-2-{(2S)-1-[2-(pentafluoro-λ^6-sulfanyl)phenoxy]propan-2-yl}-3,4-dihydro-2H-pyrido[1,2-a]pyrazine-1,6-dione], the negative-log IC50 (pIC50) is 7.75.
With `Cc1cn(-c2ccc3n(c2=O)CCN(CCOc2ccccc2-c2cccc(F)c2)C3=O)cn1` [Example 88, 2-{2-[(3′-fluorobiphenyl-2-yl)oxy]ethyl}-7-(4-methyl-1H-imidazol-1-yl)-3,4-dihydro-2H-pyrido[1,2-a]pyrazine-1,6-dione, formate salt], the negative logarithm of the IC50 (pIC50) is 7.12.
As for `Cc1cn(-c2ccc3n(c2=O)CCN(CCOc2ccc(F)cc2C2(C(F)(F)F)CCO2)C3=O)cn1` (stereo not shown) [Example 122, 2-(2-{4-fluoro-2-[2-(trifluoromethyl)oxetan-2-yl]phenoxy}ethyl)-7-(4-methyl-1H-imidazol-1-yl)-3,4-dihydro-2H-pyrido[1,2-a]pyrazine-1,6-dione, trifluoroacetate salt], the figure is 7.07.
As for `CCC(COc1ccc(Cl)cc1C(F)(F)F)N1CCn2c(ccc(-n3cnc(C)c3)c2=O)C1=O` (stereo not shown) [Example 100, 2-{1-[4-chloro-2-(trifluoromethyl)phenoxy]butan-2-yl}-7-(4-methyl-1H-imidazol-1-yl)-3,4-dihydro-2H-pyrido[1,2-a]pyrazine-1,6-dione, trifluoroacetate salt], the figure is 6.87; as for `Cc1cn(-c2ccc3n(c2=O)CCCN(CCOc2ccc(Cl)cc2C(F)(F)F)C3=O)cn1` [Example 111, 2-{2-[4-chloro-2-(trifluoromethyl)phenoxy]ethyl}-8-(4-methyl-1H-imidazol-1-yl)-2,3,4,5-tetrahydropyrido[1,2-a][1,4]diazepine-1,7-dione], 6.86; as for `Cc1cn(-c2ccc3n(c2=O)CCN(CCOc2ccc(F)cc2C(F)(F)F)C3=O)cn1` [Example 1, 2-{2-[4-Fluoro-2-(trifluoromethyl)phenoxy]ethyl}-7-(4-methyl-1H-imidazol-1-yl)-3,4-dihydro-2H-pyrido[1,2-a]pyrazine-1,6-dione], 6.59.
As for `Cc1cn(-c2ccc3n(c2=O)CCN(C(C)C(C)Oc2ccccc2S(F)(F)(F)(F)F)C3=O)cn1` (single isomer, unassigned) [Example 127, 7-(4-methyl-1H-imidazol-1-yl)-2-{3-[2-(pentafluoro-λ^6-sulfanyl)phenoxy]butan-2-yl}-3,4-dihydro-2H-pyrido[1,2-a]pyrazine-1,6-dione], the figure is 5.97; as for `Cc1cn(-c2ccc3n(c2=O)CCN(CCOc2cc(C(F)(F)F)nc4c(C)cc(Cl)cc24)C3=O)cn1` [Example 62, 2-(2-{[6-chloro-8-methyl-2-(trifluoromethyl)quinolin-4-yl]oxy}ethyl)-7-(4-methyl-1H-imidazol-1-yl)-3,4-dihydro-2H-pyrido[1,2-a]pyrazine-1,6-dione], 7.40.
As for `Cc1cn(-c2ccc3n(c2=O)CCN(CCOc2ccccc2OC(F)(F)F)C3=O)cn1` [Example 15, 7-(4-methyl-1H-imidazol-1-yl)-2-{2-[2-(trifluoromethoxy)phenoxy]ethyl}-3,4-dihydro-2H-pyrido[1,2-a]pyrazine-1,6-dione], the pIC50 is 6.56.
As for `Cc1cn(-c2ccc3n(c2=O)CCN(CCOc2noc4ccc(Cl)cc24)C3=O)cn1` [Example 82, 2-{2-[(5-chloro-1,2-benzisoxazol-3-yl)oxy]ethyl}-7-(4-methyl-1H-imidazol-1-yl)-3,4-dihydro-2H-pyrido[1,2-a]pyrazine-1,6-dione], the figure is 6.68; as for `Cc1cn(-c2ccc3n(c2=O)CCN(CCOc2ccc(Cl)c(F)c2C(F)(F)F)C3=O)cn1` [Example 45, 2-{2-[4-chloro-3-fluoro-2-(trifluoromethyl)phenoxy]ethyl}-7-(4-methyl-1H-imidazol-1-yl)-3,4-dihydro-2H-pyrido[1,2-a]pyrazine-1,6-dione, trifluoroacetate salt], 7.18; as for `Cc1cn(-c2ccc3n(c2=O)CCN(CCOc2ccccc2-c2cc4ccccc4o2)C3=O)cn1` [Example 92, 2-{2-[2-(1-benzofuran-2-yl)phenoxy]ethyl}-7-(4-methyl-1H-imidazol-1-yl)-3,4-dihydro-2H-pyrido[1,2-a]pyrazine-1,6-dione, formate salt], 8.31.
With `Cc1cn(-c2ccc3n(c2=O)CCN(CCOc2cccc4c2CCC4)C3=O)cn1` [Example 16, 2-[2-(2,3-dihydro-1H-inden-4-yloxy)ethyl]-7-(4-methyl-1H-imidazol-1-yl)-3,4-dihydro-2H-pyrido[1,2-a]pyrazine-1,6-dione], the negative logarithm of the IC50 (pIC50) is 6.63.
As to `COc1ccc(OCCN2CCn3c(ccc(-n4cnc(C)c4)c3=O)C2=O)c2ccccc12` [Example 8, 2-{2-[(4-methoxy-1-naphthyl)oxy]ethyl}-7-(4-methyl-1H-imidazol-1-yl)-3,4-dihydro-2H-pyrido[1,2-a]pyrazine-1,6-dione], the negative logarithm of the IC50 (pIC50) is 7.03.
Regarding `Cc1cn(-c2ccc3n(c2=O)CCN(CCOc2ccccc2-c2ccc(C#N)c(C(F)(F)F)c2)C3=O)cn1` [Example 65, 2′-{2-[7-(4-methyl-1H-imidazol-1-yl)-1,6-dioxo-1,3,4,6-tetrahydro-2H-pyrido[1,2-a]pyrazin-2-yl]ethoxy}-3-(trifluoromethyl)biphenyl-4-carbonitrile], the negative-log IC50 (pIC50) is 7.34.
The same measure for `O=C1c2ccc(-n3cnc(Cl)c3)c(=O)n2CCN1CCOc1ccccc1C(F)(F)F` [Example 114, 7-(4-chloro-1H-imidazol-1-yl)-2-{2-[2-(trifluoromethyl)phenoxy]ethyl}-3,4-dihydro-2H-pyrido[1,2-a]pyrazine-1,6-dione]: 5.88; for `Cc1cn(-c2ccc3n(c2=O)CCN(CCOc2cccc4cc(F)c(F)cc24)C3=O)cn1` [Example 96, 2-{2-[(6,7-difluoronaphthalen-1-yl)oxy]ethyl}-7-(4-methyl-1H-imidazol-1-yl)-3,4-dihydro-2H-pyrido[1,2-a]pyrazine-1,6-dione, trifluoroacetate salt]: 7.32; for `Cc1cc(-c2ccc3n(c2=O)CCN(CCOc2ccc(Cl)cc2C(F)(F)F)C3=O)ccn1` [Example 116, 2-{2-[4-chloro-2-(trifluoromethyl)phenoxy]ethyl}-7-(2-methylpyridin-4-yl)-3,4-dihydro-2H-pyrido[1,2-a]pyrazine-1,6-dione]: 5.46.
The same measure for `Cc1cn(-c2ccc3n(c2=O)CCN(CCOc2ccc(F)cc2C2CC2)C3=O)cn1` [Example 21, 2-[2-(2-cyclopropyl-4-fluorophenoxy)ethyl]-7-(4-methyl-1H-imidazol-1-yl)-3,4-dihydro-2H-pyrido[1,2-a]pyrazine-1,6-dione]: 6.58.
The same measure for `Cc1cn(-c2ccc3n(c2=O)CCN(CCOc2cc(C(F)(F)F)nc4cc(Cl)ccc24)C3=O)cn1` [Example 84, 2-(2-{[7-chloro-2-(trrfluoromethyl)quinolin-4-yl]oxy}ethyl)-7-(4-methyl-1H-imidazol-1-yl)-3,4-dihydro-2H-pyrido[1,2-a]pyrazine-1,6-dione]: 7.15.
